# Reference: ChEMBL document CHEMBL1201862, “PubChem BioAssay data set” (2004)
# Active and inactive are the calls of the source.
# Legend:
# cells = format: functional
# [1] = HEK-293T viability loss after treatment – luminescence, T-cell screen hits, cytotoxicity control for TCR NF-kB inhibitor project, dose response (AID 489026); format: functional, cell-based;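 also: cells exposed to compound about 14 hours before the viability readout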
# Leucine aminopeptidase = biological target: T1, Leucine aminopeptidase (Plasmodium falciparum 3D7, UniProt Q8IL11); experiment: P. falciparum M17LAP inhibitors, primary screen, biochemical, fluorogenic H-Leu-NHMec substrate, 1536-well (AID 1619); format: functional
# T1 sequence (Q8IL11 whole entry): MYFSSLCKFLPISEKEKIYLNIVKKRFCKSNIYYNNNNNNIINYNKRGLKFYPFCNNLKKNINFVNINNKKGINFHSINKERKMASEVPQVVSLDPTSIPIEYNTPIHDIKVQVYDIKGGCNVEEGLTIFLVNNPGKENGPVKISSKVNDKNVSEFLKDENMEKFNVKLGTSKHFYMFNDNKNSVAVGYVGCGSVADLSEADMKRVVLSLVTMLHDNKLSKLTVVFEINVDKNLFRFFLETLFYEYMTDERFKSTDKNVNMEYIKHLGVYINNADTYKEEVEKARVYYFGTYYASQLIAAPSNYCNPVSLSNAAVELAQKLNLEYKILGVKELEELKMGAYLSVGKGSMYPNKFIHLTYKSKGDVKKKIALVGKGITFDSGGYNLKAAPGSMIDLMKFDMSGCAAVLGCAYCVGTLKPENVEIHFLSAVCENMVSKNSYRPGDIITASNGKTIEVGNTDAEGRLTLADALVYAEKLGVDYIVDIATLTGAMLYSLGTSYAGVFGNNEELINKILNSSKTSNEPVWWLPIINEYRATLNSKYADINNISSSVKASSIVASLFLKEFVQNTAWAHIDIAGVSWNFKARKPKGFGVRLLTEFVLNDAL
# Cytochrome P450 2C9 = Cytochrome P450 2C9 (Homo sapiens, UniProt P11712)
# Large T antigen = Large T antigen (Simian virus 40, UniProt P03070); format: functional, Betapolyomavirus macacae;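 also: Confirmatory-stage PubChem screen for compounds that inhibit SV40 T antigen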
# [2] = biological target: FAD-linked sulfhydryl oxidase ALR (Homo sapiens, UniProt P55789); experiment: ALR-catalysed DTT oxidation blockers – biochemical, H2O2 detection, luminescence, cherry-pick, dose response (AID 493248)
# [3] = viability of PTEN-deleted HCT116 cells – cell-based, HCT116 PTEN knockout, dose response (AID 1047); format: functional;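 also: HCT116 colon tumor cells with PTEN knocked out; cells exposed to compound for 60 hours before readout; potency for loss of cell viability measured by luminescence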
# [4] = fluconazole-exposed Candida albicans growth modulators – fluorescence, retest, confirmation (AID 2467); format: functional, cell-based
# [5] = viability of HCT116 lacking mutant beta-catenin – cell-based, human colon tumor, dose response (AID 1045); format: functional;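 also: HCT116 colon tumor cells with beta catenin knocked out; cells exposed to compound for 60 hours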
# [6] = microbe, parasite or virus in culture; format: functional; details: Mycobacterium tuberculosis
# [7] = NIH-3T3 fibroblast cytotoxicity, dose response, cytotoxicity control, cell-based, fluorescence, Alamar Blue, secondary assay (AID 2327); format: functional;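 also: NIH-3T3 mouse fibroblasts cultured with fluconazole at 8 µg/mL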
# [8] = tested on: Streptococcus sp. 'group A'; experiment: Streptococcus pyogenes SK(-)GAS viability under kanamycin – luminescence, BacTiterGlo, confirmation, counter-screen for streptokinase expression inhibitor project, dose response (AID 1900); format: functional, organism-based
# Streptokinase A = biological target: T2, Streptokinase A (Streptococcus pyogenes serotype M1, UniProt P10520); experiment: viability-normalized secreted streptokinase activity reduction – plasminogen activation absorbance, OD405, dose response (AID 1914); format: functional, Streptococcus pyogenes M1 GAS;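 also: secreted streptokinase activity via plasminogen activation per viability signal from cell pellet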
# T2 sequence (P10520 whole entry): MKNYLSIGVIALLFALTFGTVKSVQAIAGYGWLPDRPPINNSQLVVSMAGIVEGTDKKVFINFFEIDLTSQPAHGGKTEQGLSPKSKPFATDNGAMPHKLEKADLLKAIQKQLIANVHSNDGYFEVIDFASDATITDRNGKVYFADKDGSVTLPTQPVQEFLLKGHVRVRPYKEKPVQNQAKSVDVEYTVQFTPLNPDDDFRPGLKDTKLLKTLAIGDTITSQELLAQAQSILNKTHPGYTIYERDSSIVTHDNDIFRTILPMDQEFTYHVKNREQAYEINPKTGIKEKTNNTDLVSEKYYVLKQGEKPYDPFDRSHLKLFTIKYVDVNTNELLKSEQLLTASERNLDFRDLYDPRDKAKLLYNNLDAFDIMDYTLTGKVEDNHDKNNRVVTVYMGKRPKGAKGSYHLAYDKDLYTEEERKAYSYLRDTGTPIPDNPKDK
# Streptococcus = experiment: GAS UMAA2166 growth inhibition – luminescence, BacTiterGlo, counter-screen for streptokinase expression inhibitor project, dose response (AID 1915); format: functional, organism-based;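 also: potency for reduction of bacterial viability or growth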
# [9] = viability of uninfected HEp-2 cells – cell-based, HTS, cytotoxicity control for RSV inhibitor project, dose response (AID 2410); format: functional; details: human respiratory syncytial virus
# Cytochrome P450 2C19 = Cytochrome P450 2C19 (Homo sapiens, UniProt P33261); experiment: Cytochrome panel assay with activity outcomes. Panel member name: p450-cyp2c19 Compounds with AC50 equal or less than 10 uM are considered active; format: functional; details: read-out: AC50
# Cytochrome P450 3A4 = Cytochrome P450 3A4 (Homo sapiens, UniProt P08684);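 also: CYP3A4 tested as one member of a cytochrome P450 panel screen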
# [10] = alpha-synuclein stem-loop luciferase translation blockers – H4 neuroglioma cells, luminescence, confirmation (AID 1988); format: functional, cell-based
# INS1 = experiment: INS-1E survival protection against cytokine death – cell-based, luminescence, retest, dose response (AID 449756); format: functional; details: Rattus norvegicus;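 also: cell death triggered by IL-1 beta plus TNF-alpha plus IFN-gamma mixture; protective hits raise ATP signal compared with cytokine alone wells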
# [11] = luciferase reporter signal suppression in cells – H4 neuroglioma cells, luminescence, dose response (AID 1990); format: functional, cell-based
# [12] = Luminescence Cell-Based Dose Response HTS to Identify Inhibitors of 5'UTR Stem-Loop Driven Prion Protein mRNA Translation in H4 Neuroglioblastoma Cells. [Related pubchem assays: 1827 (Project Summary), 1813 (Primary HTS)]; format: functional
# [13] = non-specific 3'UTR reporter inhibition in Clone20-Shn3RL – cell-based, Renilla luciferase, cherry-picked, counter-screen for Shn3 inhibitor project, dose response (AID 624133); format: functional
# [14] = loss of viability in HepG2 cells – cell-based, CellTiter-Glo, cherry-picked, cytotoxicity control for Shn3 inhibitor project, dose response (AID 624134); format: functional
# [15] = Trypanosoma cruzi growth suppression in host cells – NIH3T3 host cells, beta-gal luminescence, confirmation (AID 2044); format: functional, cell-based;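 also: intracellular parasites grown in NIH/3T3 mouse fibroblasts as host cells; luminescent beta-galactosidase reporter signal from transgenic T. cruzi replicating inside host cells; inhibitors lower the luminescence signal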
# [16] = NIH3T3 cell viability loss – ATP luminescence, mouse fibroblasts, counter-screen, dose response (AID 2010); format: functional, cell-based;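 also: cells exposed to compound for about 90 hours before reading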
# [17] = reduction of Shn3 3'UTR-driven luciferase in osteoblasts – cell-based, Clone20 osteoblasts, firefly luciferase, cherry-picked, dose response (AID 624132); format: functional;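 also: firefly luciferase luminescence from reporter carrying the Shn3 3'UTR in osteoblasts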
# Chain of Large T antigen (P03070 whole entry): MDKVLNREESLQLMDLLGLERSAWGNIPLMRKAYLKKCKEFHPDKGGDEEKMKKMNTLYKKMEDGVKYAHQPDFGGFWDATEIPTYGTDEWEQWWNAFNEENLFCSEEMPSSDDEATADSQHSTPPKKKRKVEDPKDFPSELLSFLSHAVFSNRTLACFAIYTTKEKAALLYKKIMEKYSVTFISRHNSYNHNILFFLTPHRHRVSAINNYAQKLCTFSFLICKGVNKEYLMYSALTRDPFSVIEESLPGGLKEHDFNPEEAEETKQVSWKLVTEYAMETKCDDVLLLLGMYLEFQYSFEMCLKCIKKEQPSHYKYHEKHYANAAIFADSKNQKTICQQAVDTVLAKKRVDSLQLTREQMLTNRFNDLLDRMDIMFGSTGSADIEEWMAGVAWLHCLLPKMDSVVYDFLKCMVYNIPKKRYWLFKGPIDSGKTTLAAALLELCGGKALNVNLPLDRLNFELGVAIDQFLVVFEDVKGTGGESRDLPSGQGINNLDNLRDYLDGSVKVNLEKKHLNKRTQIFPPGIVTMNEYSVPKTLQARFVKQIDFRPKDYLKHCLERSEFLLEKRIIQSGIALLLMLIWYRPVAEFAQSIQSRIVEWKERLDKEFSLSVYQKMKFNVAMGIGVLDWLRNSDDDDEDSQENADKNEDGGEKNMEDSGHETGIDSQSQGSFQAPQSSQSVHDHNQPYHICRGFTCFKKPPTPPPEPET
# Chain of Cytochrome P450 2C9 (P11712 whole entry): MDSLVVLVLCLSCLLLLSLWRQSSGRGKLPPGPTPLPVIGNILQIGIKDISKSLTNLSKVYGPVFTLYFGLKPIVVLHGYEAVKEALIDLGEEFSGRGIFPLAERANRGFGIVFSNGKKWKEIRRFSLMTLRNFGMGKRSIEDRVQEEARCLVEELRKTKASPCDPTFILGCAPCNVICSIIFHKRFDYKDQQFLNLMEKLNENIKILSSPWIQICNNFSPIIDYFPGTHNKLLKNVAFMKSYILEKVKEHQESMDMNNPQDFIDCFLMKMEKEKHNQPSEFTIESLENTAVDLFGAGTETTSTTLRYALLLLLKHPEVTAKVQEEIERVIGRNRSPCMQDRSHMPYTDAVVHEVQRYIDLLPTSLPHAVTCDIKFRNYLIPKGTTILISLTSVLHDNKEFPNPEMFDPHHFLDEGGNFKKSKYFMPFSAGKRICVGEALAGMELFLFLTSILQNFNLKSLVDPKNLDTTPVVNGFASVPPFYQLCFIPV
# Chain of Cytochrome P450 3A4 (P08684 whole entry): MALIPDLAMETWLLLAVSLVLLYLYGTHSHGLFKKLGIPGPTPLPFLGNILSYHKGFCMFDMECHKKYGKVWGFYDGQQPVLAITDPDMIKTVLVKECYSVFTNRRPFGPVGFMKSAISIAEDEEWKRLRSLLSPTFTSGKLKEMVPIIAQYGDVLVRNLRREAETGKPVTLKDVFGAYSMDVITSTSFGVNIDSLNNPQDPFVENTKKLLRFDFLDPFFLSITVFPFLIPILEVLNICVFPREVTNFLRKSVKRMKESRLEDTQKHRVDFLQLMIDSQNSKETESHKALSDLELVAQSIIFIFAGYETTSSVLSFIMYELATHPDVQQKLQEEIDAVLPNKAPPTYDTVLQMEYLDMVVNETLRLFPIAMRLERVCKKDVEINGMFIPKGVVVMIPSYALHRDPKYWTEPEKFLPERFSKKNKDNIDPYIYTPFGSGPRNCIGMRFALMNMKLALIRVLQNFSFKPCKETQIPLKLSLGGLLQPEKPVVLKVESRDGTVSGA
# Chain of Cytochrome P450 2C19 (P33261 whole entry): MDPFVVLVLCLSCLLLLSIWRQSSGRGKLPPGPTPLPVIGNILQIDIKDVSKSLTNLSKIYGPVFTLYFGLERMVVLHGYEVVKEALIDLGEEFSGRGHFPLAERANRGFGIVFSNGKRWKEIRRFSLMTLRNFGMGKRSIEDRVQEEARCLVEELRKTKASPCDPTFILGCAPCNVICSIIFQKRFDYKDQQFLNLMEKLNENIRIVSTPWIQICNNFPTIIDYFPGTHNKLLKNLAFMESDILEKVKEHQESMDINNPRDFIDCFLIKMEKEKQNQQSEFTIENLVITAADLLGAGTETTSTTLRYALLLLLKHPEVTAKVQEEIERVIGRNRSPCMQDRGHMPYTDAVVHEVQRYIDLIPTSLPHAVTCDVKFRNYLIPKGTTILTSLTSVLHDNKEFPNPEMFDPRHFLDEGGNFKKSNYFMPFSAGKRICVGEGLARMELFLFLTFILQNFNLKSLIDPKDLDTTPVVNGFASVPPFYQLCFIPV
# Chain of FAD-linked sulfhydryl oxidase ALR (P55789 whole entry): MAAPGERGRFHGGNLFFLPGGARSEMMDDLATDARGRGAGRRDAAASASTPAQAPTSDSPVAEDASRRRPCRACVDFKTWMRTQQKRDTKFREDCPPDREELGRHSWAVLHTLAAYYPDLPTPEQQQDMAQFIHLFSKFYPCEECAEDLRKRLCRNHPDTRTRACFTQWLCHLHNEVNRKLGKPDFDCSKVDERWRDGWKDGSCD
structure (smiles),measurement,setting,value
O=C(OCC(=O)N1CCN(c2ccccc2)CC1)c1ccc2ccccc2n1,IC50,cells,16.3 µM (active)
O=C(O)c1ccc(-c2ccc(-c3ccccc3)cc2)s1,IC50,[1],> 80 µM (inactive)
COc1ccc(OCCCn2cccc2/C=C2/C(=N)N3OC(C)=CC3=NC2=O)cc1,IC50,Leucine aminopeptidase,10.9 µM (active)
Nc1c2c(nc3ccccc13)CCC[C@H]2O,AC50,Cytochrome P450 2C9,inconclusive
CCN(CC)c1ccc(NC(=O)CCNS(=O)(=O)c2ccc3c(c2)CCC(=O)N3)c(C)c1,IC50,Large T antigen,42.6 µM (active)
same,AC50,[2],1.09 µM (active)
CC1CCCN(Cc2c(O)ccc3c(O)c(-c4nc5ccccc5s4)c(=N)oc23)C1 (stereo unspecified),EC50,[3],13.9 µM (active)
same,EC50,[4],> 38 µM (not active)
same,EC50,[5],18.9 µM (active)
same,CC50,[6],17.2 µM (active)
same,EC50,[7],76.2 µM (active)
Cc1cccc(C)c1OCC(O)CN1CCC(CN2C(=O)c3cccc4cccc(c34)C2=O)CC1 (stereo unspecified),EC50,[3],11.7 µM (active)
same,EC50,[8],9.04 µM (active)
same,EC50,[5],9.53 µM (active)
same,EC50,Streptokinase A,38.2 µM (active)
same,CC50,[6],23.4 µM (active)
same,EC50,Streptococcus,16.7 µM (active)
same,CC50,[9],7.63 µM (active)
O=C(OCC#CCSc1nc2ccccc2o1)c1ccco1,IC50,cells,10 µM (active)
FC(F)(F)C1CCCN(c2nsc3ccccc23)C1 (stereo unspecified),IC50,Large T antigen,13 µM (active)
Oc1cc(-c2ccccc2)nc2nc(SCc3ccccc3)nn12,IC50,Leucine aminopeptidase,5.04 µM (active)
Cc1cc(C)cc(NC(=O)C2CCN(c3nc(C)cc(C)n3)CC2)c1,IC50,Leucine aminopeptidase,105 µM (active)
Cc1ccc(NC(=O)CCSc2nnc(Cc3ccccc3)o2)cc1,IC50,cells,18.2 µM (active)
N#CC1=C2SCN(Cc3ccco3)CN2C(=O)CC1c1c(F)cccc1Cl (stereo unspecified),IC50,Large T antigen,84.4 µM (active)
S=C(NCCSCc1ccc(Cl)cc1Cl)Nc1ccccc1,AC50,Cytochrome P450 2C9,inconclusive
same,EC50,[8],11.5 µM (active)
same,EC50,Streptokinase A,> 150 µM (not active)
same,EC50,Streptococcus,17 µM (active)
CNc1nc(-c2c(C)noc2C)nc2ccccc12,AC50,Cytochrome P450 2C9,inconclusive
same,AC50,Cytochrome P450 2C19,3.98 µM (inconclusive)
same,AC50,Cytochrome P450 3A4,12.6 µM (inconclusive)
CCOC(=O)CNc1c(-c2ccc(O)cc2)nc2ccccn12,IC50,Large T antigen,14.7 µM (active)
Nc1nc2ccc(O)cc2s1,IC50,Large T antigen,3.5 µM (active)
COc1ccc(C)cc1Nc1n[n+](-c2ccccc2)c(-c2c(Cl)cccc2Cl)s1,EC50,[10],> 120 µM (not active)
same,AC50,INS1,4.16 µM (active)
same,CC50,[6],9.91 µM (active)
same,EC50,[11],> 120 µM (not active)
same,EC50,[12],12.6 µM (active)
C=C(C)C(=O)N1CC2(CC(c3cccc(NC(=O)c4ccccc4)c3)=NO2)C[C@@H]1C(N)=O (stereo partly specified),AC50,Cytochrome P450 2C9,inconclusive
CC(Oc1ccc(Cl)cc1Cl)c1nc(-c2ccc(NC(=O)c3ccncc3)cc2)no1 (stereo unspecified),AC50,[13],21.7 µM (active)
same,AC50,[14],6.83 µM (active)
same,IC50,[1],> 80 µM (inactive)
same,EC50,[15],1.46 µM (active)
same,EC50,[16],> 60 µM (not active)
same,AC50,[17],3.93 µM (active)
O=C(Oc1cccnc1)c1ccc(Cl)c(Cl)c1,IC50,cells,1.31 µM (active)
CCOC(=O)Cn1c(-c2ccccc2)ccc(C#N)c1=O,IC50,cells,7.5 µM (active)
CC(C)(C)OC(=O)[C@H]1[C@H](c2ccc([N+](=O)[O-])cc2)C2(C(=O)c3ccccc3C2=O)C2c3ccccc3C=NN21 (stereo partly specified),IC50,Leucine aminopeptidase,2.23 µM (active)
COc1cccc2cc(C(=O)CC3(O)C(=O)N(Cc4ccccc4)c4ccccc43)c(=O)oc12 (stereo unspecified),AC50,Cytochrome P450 2C9,inconclusive
Cc1ccc(-n2c(=O)c3c4c(sc3n3c(S)nnc23)CCC4)cc1,IC50,Large T antigen,30.9 µM (active)
O=S(=O)(c1cc(F)ccc1F)N1CCN(c2ncnc3ccccc23)CC1,AC50,[13],4.86 µM (active)
same,AC50,INS1,2.26 µM (active)
same,AC50,[14],33.6 µM (active)
same,IC50,[1],65.1 µM (inactive)
same,AC50,[17],1.85 µM (active)
Oc1oc(-c2ccco2)nc1/C=N/c1cccc(Cl)c1,IC50,cells,> 50 µM (active)
